Results on 6 compounds are retold here after PubChem BioAssay (NCI).

Test systems include M19-MEL melanoma; ACHN renal; RPMI-8226 leukemia; KM12 colon; SK-MEL-5 melanoma; DMS 114 small cell lung; SF-539 CNS; NCI/ADR-RES ovarian; CAKI-1 renal; OVCAR-8 ovarian.
Assay in all cases: NCI anticancer screen, dose series, 48 h

Structures are written as SMILES. Values joined by “and” are separate entries in the source; they are usually repeats but may differ in a detail not shown here. Identical values can stand only once.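 All cell lines were grown in 96-well plates and treated with compound for 48 hours. GI50 marks 50% less growth. TGI: concentration producing complete growth inhibition.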

Consider `O=c1c(O)c(-c2ccc(O)c(O)c2)oc2cc(O)cc(O)c12`, for which the TGI was greater than 100 µM with M19-MEL melanoma; greater than 100 µM in the assay with ACHN renal; 86.9 µM with RPMI-8226 leukemia; 59.3 µM and > 100 µM in the assay on KM12 colon; 44 µM and > 100 µM with SK-MEL-5 melanoma; greater than 100 µM in the assay on DMS 114 small cell lung. For the same compound, the TGI with SF-539 CNS is 37.2 µM and > 100 µM; in the assay with NCI/ADR-RES ovarian, 63.8 µM; with CAKI-1 renal it was greater than 100 µM; in the assay on OVCAR-8 ovarian, greater than 100 µM. The GI50 in the assay on ACHN renal is 15.6 µM; in the assay with RPMI-8226 leukemia, 10.2 µM; in the assay with KM12 colon it was 9.4 µM; with SK-MEL-5 melanoma, 9.24 µM; in the assay on SF-539 CNS, 6.04 µM; in the assay on NCI/ADR-RES ovarian, 12.8 µM. Further, the GI50 with CAKI-1 renal was 20.4 µM; in the assay with OVCAR-8 ovarian, 14.1 µM.
`C[CH2][Sn]([CH2]C)([O]C(=O)c1ccccc1F)[O][Sn]([CH2]C)([CH2]C)[O]C(=O)c1ccccc1F`: the GI50 in the assay with M19-MEL melanoma was 28.6 µM; in the assay on ACHN renal it was 18.7 µM; with RPMI-8226 leukemia, 20.9 µM; in the assay on KM12 colon, greater than 67.6 µM; in the assay with SK-MEL-5 melanoma, 41.2 µM; in the assay with DMS 114 small cell lung, 15.8 µM. Moreover, the GI50 was 20.5 µM in the assay on SF-539 CNS, 14.2 µM in the assay on CAKI-1 renal and greater than 62 µM in the assay with OVCAR-8 ovarian. In addition, the TGI was greater than 100 µM in the assay on M19-MEL melanoma; 33 µM in the assay with ACHN renal; greater than 100 µM with RPMI-8226 leukemia; greater than 100 µM in the assay with KM12 colon; greater than 70.3 µM with SK-MEL-5 melanoma; 30 µM in the assay with DMS 114 small cell lung. In addition, the TGI in the assay with SF-539 CNS was 46.9 µM; with CAKI-1 renal, 27.7 µM; in the assay with OVCAR-8 ovarian, greater than 100 µM.
Take `O=C(NC(=Nc1ccccc1)SCCSC(=Nc1ccccc1)NC(=O)c1cccs1)c1cccs1`: the TGI in the assay on M19-MEL melanoma was greater than 100 µM; in the assay with ACHN renal, greater than 100 µM; in the assay on RPMI-8226 leukemia, greater than 100 µM; in the assay on KM12 colon, greater than 100 µM; in the assay with SK-MEL-5 melanoma, 74 µM; with DMS 114 small cell lung it was greater than 100 µM. The TGI with SF-539 CNS, in the assay on CAKI-1 renal and with OVCAR-8 ovarian was greater than 100 µM in each case.
With `COc1cc2c(cc1OC)[C@@H](Nc1ccc(F)cc1)C1COC(=O)[C@@H]1C2c1cc(OC)c(O)c(OC)c1` (stereo partly drawn), the TGI in the assay with M19-MEL melanoma is greater than 100 µM; in the assay on ACHN renal, 2.49 µM; with RPMI-8226 leukemia, 2.45 µM; in the assay with KM12 colon, greater than 64.5 µM; with SK-MEL-5 melanoma, 23.2 µM; with DMS 114 small cell lung, 10.4 µM. The TGI was 4.26 µM with SF-539 CNS, 3.76 µM with CAKI-1 renal and greater than 38.8 µM in the assay with OVCAR-8 ovarian.
Consider `O=c1cc(-c2cccnc2)[nH]c2cc3c(cc12)OCO3`, for which the TGI is greater than 100 µM in the assay with M19-MEL melanoma; greater than 100 µM in the assay with ACHN renal; greater than 100 µM in the assay with RPMI-8226 leukemia; greater than 100 µM with KM12 colon; 23.9 µM with SK-MEL-5 melanoma; greater than 100 µM in the assay on DMS 114 small cell lung. The TGI in the assay with SF-539 CNS was 17.7 µM; with NCI/ADR-RES ovarian, 40 µM; in the assay with OVCAR-8 ovarian it was greater than 95.3 µM.
As for `O=C1C(c2cnc3ccccc3n2)=C(O)c2ccccc21`, the TGI in the assay with M19-MEL melanoma is greater than 100 µM; in the assay on ACHN renal, greater than 100 µM; in the assay with RPMI-8226 leukemia it was greater than 100 µM; in the assay on KM12 colon, greater than 41.1 µM; with SK-MEL-5 melanoma it was greater than 100 µM; in the assay with DMS 114 small cell lung, greater than 100 µM. For the same compound, the TGI with SF-539 CNS, in the assay with NCI/ADR-RES ovarian, with CAKI-1 renal and in the assay with OVCAR-8 ovarian was greater than 100 µM each time.
